From ChEMBL document CHEMBL2074042, “beta-lactam antibiotics as substrates for OCTN2, an organic cation/carnitine transporter” (J Biol Chem, 2000)

Target: T1, Organic cation/carnitine transporter 2 (Homo sapiens, UniProt O76082)
T1 sequence (O76082 whole entry): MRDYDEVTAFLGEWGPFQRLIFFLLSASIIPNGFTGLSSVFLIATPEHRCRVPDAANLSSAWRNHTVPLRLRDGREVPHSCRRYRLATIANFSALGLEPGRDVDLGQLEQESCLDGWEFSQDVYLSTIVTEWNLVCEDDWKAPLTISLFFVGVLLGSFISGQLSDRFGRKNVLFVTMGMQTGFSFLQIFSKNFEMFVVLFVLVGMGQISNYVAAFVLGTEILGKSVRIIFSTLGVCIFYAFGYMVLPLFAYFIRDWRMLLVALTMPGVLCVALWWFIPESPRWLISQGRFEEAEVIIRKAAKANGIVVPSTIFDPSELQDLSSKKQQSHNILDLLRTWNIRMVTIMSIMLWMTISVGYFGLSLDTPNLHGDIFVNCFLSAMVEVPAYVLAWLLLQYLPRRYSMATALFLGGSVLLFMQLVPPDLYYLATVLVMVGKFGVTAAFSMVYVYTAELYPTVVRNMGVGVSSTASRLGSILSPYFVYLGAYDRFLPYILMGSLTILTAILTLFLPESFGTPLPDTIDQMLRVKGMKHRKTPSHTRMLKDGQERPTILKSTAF
Experiment: TP_TRANSPORTER: inhibition of Carnitine uptake (Carnitine: 0.02 uM, PCG: 2500 uM) in OCTN2-expressing HeLa cells
Type: functional, cell-based

Activity: is not an inhibitor [-]
SMILES: CC1(C)S[C@@H]2[C@H](NC(=O)Cc3ccccc3)C(=O)N2[C@H]1C(=O)O [PENICILLIN G]
